According to paper PMC8041433 (Environmental Health Perspectives, 2021):
Several values for one entry are separate records, joined by “and”; a condition that tells them apart may be missing. Equal values may be shown once. Where a name gives a salt, the structure may show the parent alone. Read-outs that look alike come from different tables or passages of the source.

What was measured:
[1] = biological target: AChE in neural stem cells (Homo sapiens, UniProt P22303); test: cell-based
[2] = biological target: T1, recombinant human AChE (Homo sapiens, UniProt P22303); test: biochemical; conditions: potency (IC50), Enzyme with microsomes
T1 sequence (P22303 32-614): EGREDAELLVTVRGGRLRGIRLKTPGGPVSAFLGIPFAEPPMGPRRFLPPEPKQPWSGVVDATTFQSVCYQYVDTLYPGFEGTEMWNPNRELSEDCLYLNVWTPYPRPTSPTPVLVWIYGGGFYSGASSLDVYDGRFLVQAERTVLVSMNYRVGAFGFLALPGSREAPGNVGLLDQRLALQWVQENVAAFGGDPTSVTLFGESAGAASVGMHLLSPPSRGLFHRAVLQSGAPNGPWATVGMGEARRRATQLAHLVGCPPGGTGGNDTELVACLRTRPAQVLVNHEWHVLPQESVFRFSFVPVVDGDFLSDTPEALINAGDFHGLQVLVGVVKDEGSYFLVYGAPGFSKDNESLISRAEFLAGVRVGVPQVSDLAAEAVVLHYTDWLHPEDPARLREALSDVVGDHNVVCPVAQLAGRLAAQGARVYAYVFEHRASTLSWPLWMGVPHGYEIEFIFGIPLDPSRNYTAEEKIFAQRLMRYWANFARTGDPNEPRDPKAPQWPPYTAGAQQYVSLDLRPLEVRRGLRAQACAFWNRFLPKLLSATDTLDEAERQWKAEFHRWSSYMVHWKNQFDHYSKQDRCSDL

[3] = biological target: AChE in SH-SY5Y spheroids (Homo sapiens, UniProt P22303); test: cell-based; conditions: potency (IC50)
Chain of AChE in SH-SY5Y spheroids (P22303 32-614): as above

[4] = biological target: T1, recombinant human AChE
[5] = biological target: T1, recombinant human AChE; test: biochemical
[6] = biological target: AChE in SH-SY5Y cells (Homo sapiens, UniProt P22303); test: cell-based
Chain of AChE in SH-SY5Y cells (P22303 32-614): as above

[7] = biological target: T1, recombinant human AChE; test: biochemical; assay type: biochemical; conditions: for AC50: AC50 (uM)
[8] = biological target: T1, recombinant human AChE; test: biochemical; remark: listed apart in the source
[9] = biological target: AChE in neural stem cell spheroids (Homo sapiens, UniProt P22303); test: cell-based; conditions: potency (IC50)
Chain of AChE in neural stem cell spheroids (P22303 32-614): as above

[10] = potency (IC50), SH-SY5Y cells monolayer
[11] = Neural stem cell spheroid (24 h)
[12] = Neural stem cell spheroid (48 h)
Wherever IR or R is given: key: Reversible (R); Irreversible (IR); ND, not detected in enzyme-based AChE inhibition assay from current study.

Chain of AChE in neural stem cells (P22303 32-614): as above

Row | SMILES | IC50 [1] | IC50 [2] | IC50 ([3]; SH-SY5Y spheroids (24 h)) | IC50 ([3]; SH-SY5Y spheroids (48 h)) | CC-v2 (curve classes) [4] | IC50 [5] | CC-v2 (curve classes) [6] | IC50 ([6]; IC50 (uM)) | IC50 [6, 10] | IR or R [7] | AC50 ([7]; activity_5) | AC50 ([7]; activity_10) | AC50 ([7]; activity_60) | CC-v2 (curve classes) [8] | IC50 ([8]; potency (IC50), Enzyme) | IC50 [9, 11] | IC50 [9, 12] | AC50 [7] | Efficacy [4] | Efficacy [8] | other results
1 | CNC(=O)Oc1ccccc1OC(C)C [Propoxur] | 17 ± 1.1 µM | 1.76 µM | 3.55 ± 2.59 µM | 2.45 ± 0.61 µM | -1.1 | 1.91 ± 0.12 µM | -1.1 | 2.24 µM and 2 µM (2×) and 1.59 µM and 1.78 µM | 3.05 ± 0.52 µM | R | 22.2 µM and 14 µM and 6.27 µM | 4.98 µM and 14 µM and 7.03 µM | 1.77 µM and 1.11 µM and 2.5 µM | -1.1 | 1.55 ± 0.43 µM | 20.1 ± 4.2 µM | 35.8 µM |  |  |  | 
2 | CNC(=O)Oc1cccc2c1OC(C)(C)C2 [Carbofuran] | 2.19 ± 0.61 µM | 0.22 ± 0.04 µM | 0.64 ± 0.97 µM | 0.27 ± 0.05 µM | -1.1 | 0.23 ± 0.03 µM | -1.1 | 0.0894 µM and 0.725 µM and 0.647 µM and 0.1 µM and 0.458 µM | 0.29 ± 0.05 µM |  |  |  |  | -1.1 | 0.09 µM | 2.44 ± 0.61 µM | 4.82 ± 0.66 µM | 993 nM (2×) and 1.11 µM (2×) and 885 nM and 125 nM and 314 nM and 157 nM |  |  | 
3 | C=CC[N+]1([C@H]2C[C@H]3[C@@H]4CC[C@H]5C[C@H](OC(C)=O)[C@@H](N6CCCCC6)C[C@]5(C)[C@H]4CC[C@]3(C)[C@H]2OC(=O)CC)CCCCC1 [Rapacuronium bromide, reference compound] | 5.27 µM | 26.3 µM | 8.24 µM | 22.6 µM | 4 | 26.3 ± 1.71 µM | -2.1 | 27.5 µM and 30.9 µM and 34.7 µM | 16 µM | R | 21.7 µM and 19.3 µM | 13.7 µM and 21.7 µM and 19.3 µM | 21.7 µM and 38.5 µM and 19.3 µM | -2.2 | 22.6 µM | 3.64 µM | 1.37 µM |  | 0 | -53.371 | IC50 ([8]; IC50 (uM)): 30.9 µM
4 | CN1C(=O)COc2c(C(=O)NC3CN4CCC3CC4)cc(Cl)cc21 (stereo not drawn) [Azasetron hydrochloride, reference compound] | 6.88 µM | 8.97 µM | 9.64 µM | 6.85 µM | 4 | 8.98 ± 0.61 µM | -2.1 and -2.2 | 38.9 µM and 34.7 µM and 17.4 µM | 6.6 µM | R |  |  |  | -2.2 | 7.72 µM | 16.5 µM | 18.8 µM | 17.2 µM (2×) and 3.43 µM and 21.7 µM and 19.3 µM (2×) and 12.2 µM (2×) and 15.3 µM | 0 | -34.351 | IC50 ([8]; IC50 (uM)): 30.9 µM
5 | Cl.Clc1cc(Cl)c2c(c1)N=C1CCCCCN1C2 [PharmaGSID_47259] | 10.7 ± 2.66 µM | 1.79 ± 0.22 µM | 2.24 ± 2.76 µM | 0.85 ± 0.21 µM | -1.1 | 1.54 ± 0.18 µM | -1.1 | 0.776 µM and 0.692 µM | 0.87 ± 0.18 µM | R | 1.09 µM and 0.544 µM | 0.153 µM and 1.22 µM and 1.09 µM | 0.968 µM and 0.172 µM and 1.22 µM | -1.1 | 0.54 ± 0.06 µM | 13.5 ± 9.25 µM | 22 µM |  | -90.391 | -94.138 | 
6 | CCOP(=S)(OCC)Oc1cc(C)nc(C(C)C)n1 [Diazinon] | 0.41 ± 0.11 µM | 22.6 ± 1.52 µM | 19 ± 11.8 µM | 20.1 ± 1.36 µM |  |  | 4 and -2.1 and -1.1 |  | 11.3 ± 1.44 µM |  |  |  |  |  | 19.4 ± 2.22 µM | 0.04 ± 0.01 µM | 0.09 ± 0.02 µM | 6.85 µM and 30.6 µM and 10.9 µM and 24.3 µM |  |  | potency (IC50), Enzyme-based assay with heat-inactivated microsomes [5]: Inactive; reversibility of AChE inhibition (result in words) [7]: irreversibility
7 | CN1C[C@H](CNC(=O)OCc2ccccc2)C[C@@H]2c3cccc4c3c(cn4C)C[C@H]21 [Metergoline, reference compound] | 13.2 ± 0.85 µM | 21.7 µM | 1.73 ± 0.75 µM | 4.17 ± 0.27 µM |  | 20.9 ± 1.36 µM |  | 3.47 µM and 5.5 µM | 4.85 µM |  |  |  |  |  | 5.46 ± 1.98 µM | 5.79 ± 1.63 µM | 5.8 ± 1.64 µM | 21.7 µM and 12.2 µM (3×) and 13.7 µM and 27.3 µM and 9.68 µM (2×) and 10.9 µM |  |  | 
